According to ChEMBL document CHEMBL3091405, “Novel glycosylated endomorphin-2 analog produces potent centrally-mediated antinociception in mice after peripheral administration” (Bioorg Med Chem Lett, 2013):
Calls of active or inactive are those of the source. The rule behind the calls is not given here. Residues, ends and D or L forms follow the SMILES beside them. *: point of attachment. X1 = CC(=O)OC[C@H]1O[C@@H](*)[C@H](OC(C)=O)[C@@H](OC(C)=O)[C@@H]1OC(C)=O; βGlc = OC[C@H]1O[C@@H](*)[C@H](O)[C@@H](O)[C@@H]1O

Legend:
Mu-type opioid receptor [1] = target: Mu-type opioid receptor (Rattus norvegicus, UniProt P33535); experiment: Displacement of [3H]DAMGO from Wistar rat brain mu opioid receptor by liquid scintillation counting analysis
Mu-type opioid receptor [2] = target: Mu-type opioid receptor (Cavia porcellus, UniProt P97266); experiment: Agonist activity at mu opioid receptor in guinea pig ileum; format: tissue-based
Plasma [3] = experiment: Drug metabolism in mouse plasma assessed as glucuronic metabolite formation at 3 mg/kg, iv after 10 mins by mass spectrometric analysis; format: ADME, organism-based; set-up: dose 3 mg/kg, route intravenous; conditions: in vivo
Plasma [4] = experiment: Drug metabolism in mouse plasma assessed as degycosylated metabolite formation at 3 mg/kg, iv after 10 mins by mass spectrometric analysis; format: ADME, organism-based; set-up: dose 3 mg/kg, route intravenous; conditions: in vivo
Mus musculus [5] = experiment: Antinociceptive activity in mouse assessed as prolongation time to jump at 3 mg/kg, iv by hot plate test; format: functional, organism-based; set-up: dose 3 mg/kg
Mus musculus [6] = experiment: Antinociceptive activity in mouse assessed as prolongation time to jump at 3 mg/kg, iv by hot plate test in presence of opioid receptor antagonist NALME; format: functional, organism-based; set-up: dose 3 mg/kg

Chain of Mu-type opioid receptor (Cavia porcellus, UniProt P97266) (P97266 whole entry): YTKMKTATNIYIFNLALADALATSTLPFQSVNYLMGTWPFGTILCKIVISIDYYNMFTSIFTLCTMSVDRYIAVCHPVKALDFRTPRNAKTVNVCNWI
Chain of Mu-type opioid receptor (Rattus norvegicus, UniProt P33535) (P33535 whole entry): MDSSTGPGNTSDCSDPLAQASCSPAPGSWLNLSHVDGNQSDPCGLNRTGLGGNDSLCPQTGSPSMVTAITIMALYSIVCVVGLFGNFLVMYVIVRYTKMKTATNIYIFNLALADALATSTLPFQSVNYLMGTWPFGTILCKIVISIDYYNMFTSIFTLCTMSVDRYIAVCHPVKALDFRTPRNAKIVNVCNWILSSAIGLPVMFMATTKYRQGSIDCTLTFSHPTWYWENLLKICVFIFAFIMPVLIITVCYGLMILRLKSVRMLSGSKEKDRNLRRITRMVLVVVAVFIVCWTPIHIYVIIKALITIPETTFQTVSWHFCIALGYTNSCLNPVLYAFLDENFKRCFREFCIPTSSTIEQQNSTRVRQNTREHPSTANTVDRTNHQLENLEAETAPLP

## CC(=O)OC[C@H]1O[C@@H](Oc2ccc(C[C@H](NC(=O)[C@@H]3CCCN3C(=O)[C@@H](N)Cc3ccc(O)cc3)C(=O)N[C@@H](Cc3ccccc3)C(N)=O)cc2)[C@H](OC(C)=O)[C@@H](OC(C)=O)[C@@H]1OC(C)=O (H-YPY(X1)F-NH2)
Mu-type opioid receptor [1]
  IC50: > 1000 nM
Mu-type opioid receptor [2]
  IC50: > 1000 nM

## NC(=O)[C@H](Cc1ccccc1)NC(=O)[C@H](Cc1ccc(O[C@@H]2O[C@H](CO)[C@@H](O)[C@H](O)[C@H]2O)cc1)NC(=O)[C@@H]1CCCN1C(=O)[C@@H](N)Cc1ccc(O)cc1 (H-YPY(βGlc)F-NH2)
Plasma [3]
  Drug metabolism: Active
Plasma [4]
  Drug metabolism: Active
Mus musculus [5]
  Activity: Active
Mus musculus [6]
  Activity: Active
Mu-type opioid receptor [1]
  IC50: 73.2 nM
Mu-type opioid receptor [2]
  IC50: 16.1 nM

## NC(=O)[C@H](Cc1ccccc1)NC(=O)[C@H](Cc1ccccc1)NC(=O)[C@@H]1CCCN1C(=O)[C@@H](N)Cc1ccc(O)cc1
Mus musculus [5]
  Activity: inactive
